Measurements as given in the supplement of paper PMC10307832.

Columns and labels:
Experiment in all cases: relative viability (nuclei count vs DMSO), 5 days (fraction); higher = more cells survive
Doxorubicin + Linsitinib = compound: COc1cccc2c1C(=O)c1c(O)c3c(c(O)c1C2=O)C[C@@](O)(C(=O)CO)C[C@@H]3O[C@H]1C[C@H](N)[C@H](O)[C@H](C)O1 [Doxorubicin] + C[C@]1(O)C[C@@H](c2nc(-c3ccc4ccc(-c5ccccc5)nc4c3)c3c(N)nccn32)C1 [Linsitinib] (partner 1 µM)
In short: (§1)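 Relative viability equals treated-well nuclei counts divided by vehicle-well nuclei counts. Counts came from 4× images of lung cancer cell lines grown in 1536-well plates for 5 days after pin-tool dosing on the day after seeding. Dosing used one drug alone or a fixed anchor-drug dose plus five library-drug doses (not always all listed) in √10 steps, and values are medians of duplicate plates.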

BAY61-3606 + Navitoclax = compound: COC1=C(C=C(C=C1)C2=CC3=NC=CN3C(=N2)NC4=C(C=CC=N4)C(=O)N)OC [BAY61-3606] + CC1(C)CCC(c2ccc(Cl)cc2)=C(CN2CCN(c3ccc(C(=O)NS(=O)(=O)c4ccc(N[C@H](CCN5CCOCC5)CSc5ccccc5)c(S(=O)(=O)C(F)(F)F)c4)cc3)CC2)C1 [Navitoclax] (partner 0.5 µM)
In short: as §1

BAY61-3606 + Palbociclib = compound: COC1=C(C=C(C=C1)C2=CC3=NC=CN3C(=N2)NC4=C(C=CC=N4)C(=O)N)OC [BAY61-3606] + CC(=O)c1c(C)c2cnc(Nc3ccc(N4CCNCC4)cn3)nc2n(C2CCCC2)c1=O [Palbociclib] (partner 0.5 µM)
In short: as §1

Doxorubicin + Crizotinib = compound: COc1cccc2c1C(=O)c1c(O)c3c(c(O)c1C2=O)C[C@@](O)(C(=O)CO)C[C@@H]3O[C@H]1C[C@H](N)[C@H](O)[C@H](C)O1 [Doxorubicin] + C[C@@H](Oc1cc(-c2cnn(C3CCNCC3)c2)cnc1N)c1c(Cl)ccc(F)c1Cl [Crizotinib] (partner 1 µM)
In short: as §1

Row | Cell Line | relative viability (Doxorubicin + Linsitinib; first compound 0.001 µM) | relative viability (Doxorubicin + Linsitinib; first compound 0.003162 µM) | relative viability (Doxorubicin + Linsitinib; first compound 0.01 µM) | relative viability (Doxorubicin + Linsitinib; first compound 0.03162 µM) | relative viability (Doxorubicin + Linsitinib; first compound 0.1 µM) | relative viability (BAY61-3606 + Navitoclax; first compound 0.02 µM) | relative viability (BAY61-3606 + Navitoclax; first compound 0.06325 µM) | relative viability (BAY61-3606 + Navitoclax; first compound 0.2 µM) | relative viability (BAY61-3606 + Navitoclax; first compound 0.6325 µM) | relative viability (BAY61-3606 + Navitoclax; first compound 2 µM) | relative viability (BAY61-3606 + Palbociclib; first compound 0.02 µM) | relative viability (BAY61-3606 + Palbociclib; first compound 0.06325 µM) | relative viability (BAY61-3606 + Palbociclib; first compound 0.2 µM) | relative viability (BAY61-3606 + Palbociclib; first compound 0.6325 µM) | relative viability (BAY61-3606 + Palbociclib; first compound 2 µM) | relative viability (Doxorubicin + Crizotinib; first compound 0.001 µM) | relative viability (Doxorubicin + Crizotinib; first compound 0.003162 µM) | relative viability (Doxorubicin + Crizotinib; first compound 0.01 µM) | relative viability (Doxorubicin + Crizotinib; first compound 0.03162 µM) | relative viability (Doxorubicin + Crizotinib; first compound 0.1 µM)
1 | LC-2-ad | 0.879 | 0.803 | 0.902 | 0.763 | 0.791 | 0.471 | 0.521 | 0.466 | 0.468 | 0.26 | 0.479 | 0.516 | 0.454 | 0.532 | 0.453 | 0.265 | 0.414 | 0.459 | 0.416 | 0.389
2 | LCLC-97TM1 | 0.205 | 0.185 | 0.177 | 0.151 | 0.159 | 0.393 | – | 0.386 | 0.417 | 0.326 | 0.241 | 0.222 | 0.281 | 0.218 | 0.301 | 0.365 | 0.455 | 0.244 | 0.344 | 0.371
3 | LK-2 | 0.524 | 0.742 | 0.409 | 0.483 | 0.627 | 0.927 | 0.963 | 0.925 | 0.896 | 0.705 | 0.641 | 0.74 | 0.822 | 0.697 | 0.567 | 0.29 | 0.223 | 0.235 | 0.227 | 0.272
4 | LOU-NH91 | – | 0.826 | 0.953 | 0.73 | 0.7 | 0.73 | 0.57 | 0.731 | 0.812 | 0.5 | 0.547 | 0.503 | 0.529 | 0.508 | 0.557 | – | 0.763 | 0.772 | 0.674 | 0.711
5 | LU99A | 0.521 | 0.645 | 0.526 | 0.456 | 0.575 | 0.845 | 0.762 | 0.984 | 0.828 | 0.396 | 0.448 | 0.395 | 0.451 | 0.417 | 0.271 | 0.548 | 0.522 | 0.671 | 0.417 | 0.46
6 | LXF-289 | 0.997 | 0.968 | 0.946 | 1.04 | 0.993 | 0.887 | 1.05 | 0.952 | 0.981 | 1.01 | 0.533 | 0.587 | 0.62 | 0.677 | 0.665 | 0.761 | 0.832 | 0.832 | 0.837 | 0.805
7 | NCI-H23 | – | 0.539 | 0.683 | 0.473 | 0.638 | 0.936 | 0.809 | 0.775 | 0.983 | 0.551 | 0.646 | 0.484 | 0.549 | 0.509 | 0.371 | – | 0.479 | 0.507 | 0.298 | 0.449
8 | NCI-H322M | 0.986 | 0.913 | 0.982 | 0.974 | 0.952 | 1.38 | 1.25 | 1.22 | 1.3 | 1.33 | 0.522 | 0.47 | 0.511 | 0.49 | 0.447 | 1.02 | 1.07 | 0.86 | 0.922 | 0.893
9 | NCI-H441 | 0.697 | 0.718 | 0.513 | 0.281 | 0.513 | 0.84 | 0.515 | 0.66 | 0.82 | 0.262 | 0.249 | 0.264 | 0.256 | 0.231 | 0.192 | 0.827 | 0.644 | 0.63 | 0.487 | 0.48
10 | NCI-H460 | 0.714 | 0.687 | 0.385 | 0.0347 | 0.0076 | 1.27 | 1.28 | 1.06 | 1.1 | 0.756 | 0.171 | 0.126 | 0.256 | 0.257 | 0.086 | 0.887 | 0.882 | 0.273 | 0.0178 | 0.006
11 | NCI-H520 | 0.888 | 0.986 | 0.826 | 0.698 | 0.73 | 1.29 | 1.11 | 1.24 | 1.1 | 1.04 | 0.218 | 0.246 | 0.254 | 0.265 | 0.22 | 0.649 | 0.597 | 0.793 | 0.616 | 0.501
12 | NCI-H647 | 0.977 | 1.17 | 0.952 | 0.441 | 0.435 | 1.21 | 1.05 | 1.04 | 1.26 | 0.663 | 0.386 | 0.358 | 0.328 | 0.401 | 0.235 | 1.02 | 1.26 | 0.84 | 0.375 | 0.17
13 | NCI-H727 | 0.275 | 0.323 | 0.304 | 0.251 | 0.455 | 0.45 | 0.512 | 0.419 | 0.525 | 0.33 | 0.737 | 0.588 | 0.637 | 0.635 | 0.631 | 0.817 | 1.01 | 0.787 | 0.677 | 0.578
14 | NCI-H838 | 1.04 | 1.04 | 0.952 | 0.906 | 0.446 | 1.3 | 1.24 | 1.07 | 1.12 | 0.956 | 0.233 | 0.2 | 0.22 | 0.247 | 0.207 | 0.8 | 0.877 | 0.87 | 0.417 | 0.234
15 | NCI-H1355 | 0.793 | 0.862 | 0.81 | 0.872 | 0.785 | 1.08 | 0.962 | 0.865 | 0.995 | 0.721 | 0.444 | 0.404 | 0.398 | 0.454 | 0.335 | 1.05 | 1.16 | 1.01 | 0.964 | 1.05
16 | NCI-H1437 | 1 | 1.13 | 0.965 | 0.591 | 0.28 | 1.1 | 1.16 | 1.06 | 1.12 | 1.06 | 0.338 | 0.28 | 0.312 | 0.387 | 0.315 | 0.866 | 0.924 | 0.962 | 0.517 | 0.262
